# According to patent publication US7485651B2, “Compounds with activity on muscarinic receptors” (Acadia Pharmaceuticals, Inc., priority 1998, dated 2009):
# Assays:
# [1] = target: T1, α-adrenergic receptor subtype 1D (Homo sapiens, UniProt P25100); assay: Test against other receptors: α-adrenergic 1D; format: cell-based
# T1 sequence (P25100 1-572): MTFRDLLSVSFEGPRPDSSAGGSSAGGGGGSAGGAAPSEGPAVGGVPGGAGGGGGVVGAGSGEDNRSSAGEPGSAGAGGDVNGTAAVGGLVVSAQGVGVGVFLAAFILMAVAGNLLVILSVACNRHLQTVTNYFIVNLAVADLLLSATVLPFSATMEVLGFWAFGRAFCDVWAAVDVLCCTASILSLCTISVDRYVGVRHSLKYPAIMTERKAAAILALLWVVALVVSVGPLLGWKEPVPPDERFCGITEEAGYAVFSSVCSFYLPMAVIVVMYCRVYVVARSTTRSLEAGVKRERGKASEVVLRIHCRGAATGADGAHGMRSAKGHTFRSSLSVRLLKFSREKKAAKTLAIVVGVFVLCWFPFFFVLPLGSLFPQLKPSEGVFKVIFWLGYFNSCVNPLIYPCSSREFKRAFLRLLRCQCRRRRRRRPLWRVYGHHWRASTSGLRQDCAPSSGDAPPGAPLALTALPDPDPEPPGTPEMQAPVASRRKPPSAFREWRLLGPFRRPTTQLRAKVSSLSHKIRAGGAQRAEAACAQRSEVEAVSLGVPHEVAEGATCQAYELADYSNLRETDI
# [2] = target: T2, α-adrenergic receptor subtype 1A (Homo sapiens, UniProt P35348); assay: Test against other receptors: α-adrenergic 1A; format: cell-based
# T2 sequence (P35348 1-466): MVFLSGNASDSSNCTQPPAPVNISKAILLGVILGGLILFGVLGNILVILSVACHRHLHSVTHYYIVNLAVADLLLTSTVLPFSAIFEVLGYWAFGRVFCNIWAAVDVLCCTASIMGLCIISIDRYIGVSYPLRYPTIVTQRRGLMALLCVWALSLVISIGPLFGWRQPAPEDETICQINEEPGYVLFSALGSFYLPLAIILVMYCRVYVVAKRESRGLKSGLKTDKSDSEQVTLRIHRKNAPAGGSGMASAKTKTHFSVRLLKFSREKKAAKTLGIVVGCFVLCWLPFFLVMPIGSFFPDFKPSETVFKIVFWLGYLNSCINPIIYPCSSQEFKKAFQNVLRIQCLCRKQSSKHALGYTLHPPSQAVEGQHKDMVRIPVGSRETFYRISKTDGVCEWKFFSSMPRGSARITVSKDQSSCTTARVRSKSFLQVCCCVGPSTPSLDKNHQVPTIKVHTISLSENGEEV
# [3] = target: T3, α-adrenergic receptor subtype 2B (Homo sapiens, UniProt P18089); assay: Test against other receptors: α-adrenergic 2B; format: cell-based
# T3 sequence (P18089 1-450): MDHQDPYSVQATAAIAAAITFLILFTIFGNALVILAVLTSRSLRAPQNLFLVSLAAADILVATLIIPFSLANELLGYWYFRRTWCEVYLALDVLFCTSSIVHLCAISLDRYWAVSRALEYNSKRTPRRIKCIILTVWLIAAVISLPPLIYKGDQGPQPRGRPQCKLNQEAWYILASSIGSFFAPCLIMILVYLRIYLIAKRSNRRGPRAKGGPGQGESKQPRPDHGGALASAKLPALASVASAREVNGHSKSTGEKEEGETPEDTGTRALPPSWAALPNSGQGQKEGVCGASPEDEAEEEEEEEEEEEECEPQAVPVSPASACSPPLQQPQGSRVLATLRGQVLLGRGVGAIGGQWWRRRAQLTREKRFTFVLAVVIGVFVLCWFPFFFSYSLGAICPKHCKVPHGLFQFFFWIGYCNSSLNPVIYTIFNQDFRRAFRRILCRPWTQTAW
# [4] = target: histamine H1 (Homo sapiens, UniProt P35367); assay: Test against other receptors: histamine H1; format: cell-based
# [5] = target: T4, serotonin 5-HT1A (Homo sapiens, UniProt P08908); assay: Test against other receptors: serotonin 5-HT1A; format: cell-based
# T4 sequence (P08908 1-422): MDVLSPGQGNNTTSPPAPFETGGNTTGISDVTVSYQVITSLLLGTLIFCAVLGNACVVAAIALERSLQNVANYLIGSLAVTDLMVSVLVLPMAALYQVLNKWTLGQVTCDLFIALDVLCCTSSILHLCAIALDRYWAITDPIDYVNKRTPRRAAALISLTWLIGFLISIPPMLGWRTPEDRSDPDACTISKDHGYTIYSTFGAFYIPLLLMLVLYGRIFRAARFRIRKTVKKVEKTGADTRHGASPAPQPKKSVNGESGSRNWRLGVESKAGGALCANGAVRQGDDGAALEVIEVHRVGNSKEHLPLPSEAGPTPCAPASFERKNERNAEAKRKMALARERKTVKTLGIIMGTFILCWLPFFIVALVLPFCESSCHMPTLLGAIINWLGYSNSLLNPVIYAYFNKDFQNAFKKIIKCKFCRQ
# [6] = target: serotonin 5-HT2A (Homo sapiens, UniProt P28223); assay: Test against other receptors: serotonin 5-HT2A
# Sequence of serotonin 5-HT2A (P28223 whole entry): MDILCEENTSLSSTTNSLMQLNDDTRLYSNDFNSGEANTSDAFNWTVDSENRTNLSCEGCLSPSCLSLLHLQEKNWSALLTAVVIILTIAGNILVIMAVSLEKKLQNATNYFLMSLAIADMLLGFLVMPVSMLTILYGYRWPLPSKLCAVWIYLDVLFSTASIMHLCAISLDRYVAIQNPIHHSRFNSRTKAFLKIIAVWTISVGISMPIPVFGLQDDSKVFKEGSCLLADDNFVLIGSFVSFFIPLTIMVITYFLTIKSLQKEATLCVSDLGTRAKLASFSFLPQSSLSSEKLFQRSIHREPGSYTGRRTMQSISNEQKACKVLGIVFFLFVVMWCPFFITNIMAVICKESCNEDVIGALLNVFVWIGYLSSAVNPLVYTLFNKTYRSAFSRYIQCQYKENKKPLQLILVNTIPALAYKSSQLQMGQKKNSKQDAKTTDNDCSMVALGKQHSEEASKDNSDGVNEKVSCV
# Sequence of histamine H1 (P35367 whole entry): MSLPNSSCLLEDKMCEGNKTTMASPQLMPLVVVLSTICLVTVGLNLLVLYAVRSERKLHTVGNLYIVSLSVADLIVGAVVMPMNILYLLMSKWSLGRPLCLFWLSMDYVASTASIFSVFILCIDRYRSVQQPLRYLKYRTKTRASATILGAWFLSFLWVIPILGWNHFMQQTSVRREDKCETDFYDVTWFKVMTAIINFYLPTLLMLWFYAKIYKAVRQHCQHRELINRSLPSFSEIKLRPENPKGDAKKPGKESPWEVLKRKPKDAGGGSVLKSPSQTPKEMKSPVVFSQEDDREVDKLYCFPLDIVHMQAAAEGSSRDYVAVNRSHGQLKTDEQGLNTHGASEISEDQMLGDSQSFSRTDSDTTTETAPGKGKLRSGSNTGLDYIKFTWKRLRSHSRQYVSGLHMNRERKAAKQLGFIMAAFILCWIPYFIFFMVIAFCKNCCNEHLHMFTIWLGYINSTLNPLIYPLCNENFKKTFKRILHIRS
smiles,measurement,setting,value
"CCCCC1CCN(CCCC(=O)c2ccccc2C)CC1 [Compound A, 4-n-Butyl-1-[4-(2-methylphenyl)-4-oxo-1-butyl]piperidine]",agonist activity,[1],no significant activity
same,agonist activity,[2],no significant activity
same,agonist activity,[3],no significant activity
same,inhibition of receptor responses (antagonist experiments),[3],did not inhibit
same,agonist activity,[4],no significant activity
same,agonist activity,[5],no significant activity
same,inhibition of receptor responses (antagonist experiments),[5],did not inhibit
same,agonist activity,[6],no significant activity
same,inhibition of receptor responses (antagonist experiments),[6],did not inhibit
